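Protocol summary: plate cells (96-well), add compound at 5 concentrations, incubate 48 h, interpolate endpoints linearly. TGI: total growth inhibition.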
Key:
Experiment in all cases: DTP human tumour cell line panel, 48 h
[1] = tested on: 786-0 renal
[2] = tested on: A498 renal
[3] = tested on: A549 NSCLC
[4] = tested on: ACHN renal
[5] = tested on: CAKI-1 renal
[6] = tested on: CCRF-CEM leukemia
[7] = tested on: COLO 205 colon
[8] = tested on: DU-145 prostate
[9] = tested on: EKVX NSCLC
[10] = tested on: HCC-2998 colon
[11] = tested on: HCT-116 colon
[12] = tested on: HCT-15 colon
[13] = tested on: HL-60(TB) leukemia
[14] = tested on: HOP-62 NSCLC
[15] = tested on: HOP-92 NSCLC
[16] = tested on: HS 578T breast
[17] = tested on: HT29 colon
[18] = tested on: IGROV1 ovarian
[19] = tested on: K-562 leukemia
[20] = tested on: KM12 colon
[21] = tested on: LOX IMVI melanoma
[22] = tested on: M14 melanoma
[23] = tested on: MDA-MB-231 breast
[24] = tested on: MDA-MB-435
[25] = tested on: MDA-N
[26] = tested on: MOLT-4 leukemia
[27] = tested on: NCI-H226 lung
[28] = tested on: NCI-H23 lung
[29] = tested on: NCI-H460 lung
[30] = tested on: NCI-H522 lung
[31] = tested on: NCI/ADR-RES ovarian
[32] = tested on: OVCAR-3 ovarian
[33] = tested on: OVCAR-4 ovarian
[34] = tested on: OVCAR-5 ovarian
[35] = tested on: OVCAR-8 ovarian
[36] = tested on: PC-3 prostate
[37] = tested on: RPMI-8226 leukemia
[38] = tested on: RXF 393 renal
[39] = tested on: SF-268 CNS
[40] = tested on: SF-295 CNS
[41] = tested on: SF-539 CNS
[42] = tested on: SK-MEL-2 melanoma
[43] = tested on: SK-MEL-28 melanoma
[44] = tested on: SK-MEL-5 melanoma
[45] = tested on: SK-OV-3 ovarian
[46] = tested on: SN12C renal
[47] = tested on: SNB-19 CNS
[48] = tested on: SNB-75 CNS
[49] = tested on: SR leukemia
[50] = tested on: SW-620 colon
[51] = tested on: T-47D breast
[52] = tested on: TK-10 renal
[53] = tested on: U251 CNS
[54] = tested on: UACC-257 melanoma
[55] = tested on: UACC-62 melanoma
[56] = tested on: UO-31 renal
[57] = tested on: MALME-3M melanoma
[58] = tested on: MCF7 breast

CC(CO)C1=CC(C#CCOCc2ccccc2)N(C(=O)Oc2ccccc2)c2ccccc21 (stereo not drawn) gave a TGI [1] greater than 100 µM, a TGI [2] of 24.2 µM and a TGI [3] greater than 100 µM. The TGI [4] was 36.3 µM, the TGI [5] was 76.1 µM and the TGI [6] was greater than 100 µM. It also gave a TGI [7] of 28.4 µM, a TGI [8] greater than 100 µM and a TGI [9] of 73 µM. It also gave a TGI [10] greater than 100 µM, a TGI [11] greater than 100 µM and a TGI [12] of 29.7 µM. The TGI [13] was greater than 100 µM, the TGI [14] was greater than 100 µM and the TGI [15] was 61.7 µM. For the same compound, the TGI [16] was 53.5 µM, the TGI [17] was greater than 100 µM and the TGI [18] was greater than 100 µM. For the same compound, the TGI [19] was greater than 100 µM, the TGI [20] was 82.9 µM and the TGI [21] was greater than 100 µM. It also gave a TGI [22] greater than 100 µM, a TGI [23] greater than 100 µM and a TGI [24] of 47.9 µM. It also gave a TGI [25] greater than 100 µM, a TGI [26] greater than 100 µM and a TGI [27] greater than 100 µM. It also gave a TGI [28] of 39.8 µM, a TGI [29] of 91.8 µM and a TGI [30] of 37.3 µM. For the same compound, the TGI [31] was 63.3 µM, the TGI [32] was 88.2 µM and the TGI [33] was 20.7 µM. It also gave a TGI [34] greater than 100 µM, a TGI [35] greater than 100 µM and a TGI [36] greater than 100 µM. It also gave a TGI [37] greater than 100 µM, a TGI [38] of 23 µM and a TGI [39] greater than 100 µM. It also gave a TGI [40] of 71.9 µM, a TGI [41] greater than 100 µM and a TGI [42] greater than 100 µM. The TGI [43] was greater than 100 µM, the TGI [44] was 74.5 µM and the TGI [45] was greater than 100 µM. For the same compound, the TGI [46] was 68.6 µM, the TGI [47] was greater than 100 µM and the TGI [48] was greater than 100 µM. It also gave a TGI [49] greater than 100 µM, a TGI [50] greater than 100 µM and a TGI [51] greater than 100 µM. It also gave a TGI [52] greater than 100 µM, a TGI [53] greater than 100 µM and a TGI [54] of 88.2 µM. The TGI [55] was 22.9 µM and the TGI [56] was greater than 100 µM.
CC(C)NCC(O)c1ccc(OCc2ccccc2)c(OCc2ccccc2)c1-c1ccccc1 (stereo not drawn) was tested, and the TGI [1] was 3.25 µM, the TGI [2] was 11.6 µM and the TGI [3] was 3.21 µM. The TGI [4] was 3.06 µM, the TGI [5] was 3.18 µM and the TGI [7] was 3.2 µM. For the same compound, the TGI [8] was 3.14 µM, the TGI [9] was 32.3 µM and the TGI [10] was 3.06 µM. For the same compound, the TGI [11] was 3.17 µM, the TGI [12] was 3.22 µM and the TGI [14] was 3.25 µM. It also gave a TGI [15] of 6.94 µM, a TGI [16] of 2.74 µM and a TGI [17] of 3.04 µM. It also gave a TGI [18] of 2.71 µM, a TGI [21] of 13.8 µM and a TGI [57] of 3.16 µM. For the same compound, the TGI [58] was 3.22 µM, the TGI [23] was 3.16 µM and the TGI [25] was 3.1 µM. For the same compound, the TGI [26] was 4.55 µM, the TGI [27] was 4.28 µM and the TGI [29] was 3.49 µM. For the same compound, the TGI [30] was 3.16 µM, the TGI [31] was 3.73 µM and the TGI [32] was 3.22 µM. It also gave a TGI [33] of 3.79 µM, a TGI [34] of 3.16 µM and a TGI [35] of 3.17 µM. It also gave a TGI [36] of 3.11 µM, a TGI [38] greater than 100 µM and a TGI [39] of 11.8 µM. The TGI [40] was 3.55 µM, the TGI [41] was 2.98 µM and the TGI [42] was 4.18 µM. The TGI [44] was 2.5 µM, the TGI [45] was 3.16 µM and the TGI [46] was 3.13 µM. For the same compound, the TGI [47] was 4.07 µM, the TGI [48] was 2.54 µM and the TGI [50] was 3.13 µM. It also gave a TGI [51] of 7.53 µM, a TGI [52] of 3.9 µM and a TGI [54] of 3.54 µM. It also gave a TGI [55] of 2.72 µM and a TGI [56] of 7.82 µM.
